Measured values: a melting point compilation (Tetko et al.; mined from patent text by program, amines drawn as free bases though some values may be those of a salt)

| Structure (SMILES) | melting point [°C] |
| --- | --- |
| CN1CC(CCCl)Oc2ncc(Cl)cc2C1=O (stereo unspecified) | 78 to 79 |
| CCC(=O)Nc1ccnn1-c1c(Cl)cc(C(F)(F)F)cc1Cl | 125 |
| COc1ccccc1-c1nc(C)c(C(N)=O)s1 | 191 to 192 |
| O=[N+]([O-])C(CSc1cccc(Cl)c1)=C1NCCN1Cc1ccc(Cl)nc1 | 143 |
| COc1ccc(C(=O)Oc2ccc(O)cc2)cc1C12CC3CC(CC(C3)C1)C2 | 236 to 237 |
| O=C(O)COc1ccc2cc(CNC(=O)c3cnn(-c4ccc(Cl)cc4)c3C(F)(F)F)ccc2c1Br | 245 |
| O=S1(=O)NC(C2CCCCC2)Nc2ccc(S(=O)(=O)N3CCOCC3)cc21 (stereo unspecified) | 262 to 264 |
| CCNC(=O)c1ccsc1 | 115 to 117 |
| Cc1nccc2[nH]c(=O)c(N)cc12 | 283 to 285 |
| O=c1[nH]nc(C(F)(F)F)s1 | 54 to 55 |
| CC(C)n1cc(C(=O)O)c2ccc(C(F)(F)F)cc21 | 177 to 178 |
| CC(C)(C)OC(=O)NCC12CN(c3cc4c(cc3F)c(=O)c(C(=O)O)cn4C3CC3)CC1CCO2 (stereo unspecified) | 235 to 237 |
| CC1=NN(c2ccc(CO)cc2)C(=O)C1 | 139 to 140 |
| O=S(=O)(Cc1ccccc1)c1ccc(Cl)cc1 | 148 |
| N#Cc1c(-c2ccccc2)sc2c1CNCC2c1ccccc1 (stereo unspecified) | 160 |
| O=C1O[C@@H](c2ccccc2)N(C(=O)OCc2ccccc2)[C@H]1Cc1ccccc1 | 120 to 122 |
| CCOC(=O)C=Cc1cc([N+](=O)[O-])ccc1Cl | 138 to 140 |
| CCOC(=O)c1nc2n(n1)-c1sc(C)c(C)c1C(c1ccccc1)=NC2 | 173 to 174 |
| O=c1ncc(Cl)cn1CC(O)CO (stereo unspecified) | 136 to 138 |
| CCCCc1nc2c(N)nc3ccccc3c2s1 | 149 to 151 |
| COc1cccc([C@H]2O[C@H](CC(=O)NCCCCCC(=O)O)C(=O)N(CC(C)(C)CO)c3ccc(Cl)cc32)c1OC | 96 to 98 |
| Oc1ccc(Oc2ccc(Oc3ccc(O)cc3)cc2)cc1 | 187 to 189 |
| CC(C)(C)OC(=O)Nc1cc(N2CCC(O)CC2)c(I)cc1[N+](=O)[O-] | 58 to 60 |
| Nc1ccc(OCC(F)(F)F)cc1[N+](=O)[O-] | 84 to 85 |
| c1ccc(C(OC2CCN(CCCNc3ccc4ncnn4n3)CC2)c2ccccc2)cc1 | 136 to 138 |

Next, values leading:

| melting point [°C] | Structure (SMILES) |
| --- | --- |
| 150 to 151 | CCCNc1cc(C(=O)OCC)cc(S(N)(=O)=O)c1Oc1ccccc1 |
| 180 to 185 | O=C(O)c1ccc(OCCCc2ccc(O)c(O)c2)cc1 |
| 208 to 209 | CC(=O)CNC(=O)Nc1cc(-c2c(-c3ccc(F)c(C)c3)nc3cccnn23)ccn1 |
| 78 to 90 | Cc1cccc(-c2nc(C(C)C)[nH]c2-c2ccc(F)c(-c3ccco3)c2)n1 |
| 156 to 157 | COc1ccc(-c2c3cccc(C(F)(F)F)c3nn2CC2CCCCC2)c(OC)c1 |
| 210 to 212 | COc1cccc(C=C2NC(=O)NC2=O)c1OCc1ccccc1 |
| 78 to 80 | Cc1csc(C#CCCn2nc3ccccc3n2)n1 |
| 224 to 225 | O=[N+]([O-])c1cc(-c2cccc3ccccc23)c2nc(Cl)ccc2c1 |
| 156 to 158 | c1ccc(Cn2c(-c3ccc4c(c3)OCCO4)nc3cccnc32)cc1 |
| 164 to 165 | Clc1ccc(N=Cc2ccc(-c3noc4ccccc34)cc2)cc1 |
| 120 | O=C(O)c1nccc(OCc2ccccc2)c1OCc1ccccc1 |
| 255 to 257 | COc1ccc(NC(=O)NCc2ccc3c(c2)CN(C2CCC(=O)NC2=O)C3=O)cc1 (stereo unspecified) |
| 252 to 254 | CC#CC(=O)Nc1ccc2ncnc(Nc3cccc(N(C)C)c3)c2c1 |
| 206 | Cc1ccc2c(c1)c(Cl)c(C#N)c(=O)n2Cc1ccc(F)cc1 |
| 108 to 109 | COc1ccc(C2=NN(c3cccc(C(=O)N4CCOCC4)c3)C(=O)C(C)(C)C2)cc1OC |
| 161 to 163 | COc1cc(OC)nc(Oc2cccc3c2C(=O)OC3SC#N)n1 (stereo unspecified) |
